# Reference: patent publication US6635634B2, “Propanolamine derivatives” (Fujisawa Pharmaceutical Co., Ltd., priority 1998, dated 2003)
# Columns and labels:
# [1] = system: anesthetized dog; experiment: Effect on the increase in intravesical pressure induced by carbachol in anesthetized dog (Test 1); type: in vivo; conditions: for Increase in intravesical pressure (mmHg): 0.01 mg/kg intravenously 5 minutes before carbachol (1.8 μg/kg); for effect on the increase in intravesical pressure induced by carbachol (in words): anesthetized dog, 0.01 mg/kg intravenously
# Description: Effect on the increase in intravesical pressure induced by carbachol in anesthetized dog
# Female Beagle dogs weighing 8.0-15.0 kg were fasted for 24 hours and maintained under halothane anesthesia. A 12F Foley catheter was lubricated with water soluble jelly, inserted into the urethral orifice and advanced approximately 10 cm until the balloon tip was placed well inside the bladder. The balloon was then inflated with 5 ml of room air and catheter slowly withdrawn just part the first resistance that is felt at the bladder neck. Urine was completely drained out throught the catheter, and 30 ml of biological saline was infused. The catheter was connected to pressure transducer, and intravesical pressure was continuously recorded. The test compound was injected intravenously at 5 minutes before the administration of carbachol (1.8 μg/kg).
# According to a similar manner to that of Test 1 described before, the effects of the present compounds on the intravesical pressure were evaluated.
# [2] = system: anesthetized rat; experiment: Effect on cystometrogram in anesthetized rat (Test 2); type: in vivo; conditions: for bladder capacity (relative % of before value): 0.01 mg/kg intravenously, N = 5
# Description: Effect on Cystometrogram in Anesthetized Rat Male S.D. rats, aged 7-9 weeks, were anesthetized with urethane (1.2 g/kg, sc) and supine on a board. After a midline incision in the abdomen, the bladder was exposed. Polyethylene catheters, which were used to measure the intravesical pressure and to infuse saline, were inserted into the bladder through a small incision at the apex of the bladder dome. The bladder catheters were connected to an infusion pump and pressure transducer respectively. Saline was infused a rate of 5.0 ml/hr for 1 hour. Cystometrography was performed at 15 minutes intervals for 1 hour. The bladder capacity (volume) was calculated from the time required to fill the bladder. The test compound was administered intravenously via femoral vein.
# [3] = system: anesthetized rat; experiment: Effect on rhythmic contraction of bladder in anesthetized rat (Test 3); type: in vivo; conditions: dose of 0.1 mg/kg intravenously
# Description: Effect on Rhythmic Contraction of Bladder in Anesthetized Rat
# Male S.D. rats, aged 7-8 weeks, were anesthetized with urethane (1.2 g/kg, ip) and supine on a board. After a midline incision in the abdomen, the bladder was exposed. Balloon catheter, which was used to measure the intravesical pressure, was inserted into the bladder through a small incision at the apex of the bladder dome. The balloon was then inflated with distilled water and the balloon port of the catheter was connected to pressure transducer. Rhythmic contraction of bladder induced by increase intravesical pressure to 10 mmHg. The test compound was administered intravenously via femoral vein.
compound,measurement,setting,value
Cl.Oc1cc2c(cc1Cl)CC(N(Cc1ccccc1)C[C@H](O)COc1ccccc1)CCC2 (stereo partly drawn),melting point,,94 to 99 °C (dec.)
Cl.Oc1ccc2c(c1)CCCC(NC[C@H](O)COc1ccccc1)C2 (stereo partly drawn),melting point,,53.5 °C (dec.)
Cl.Oc1cccc2c1CCCC(NC[C@H](O)COc1ccccc1)C2 (stereo partly drawn),melting point,,73 to 84 °C (dec.)
Cl.O=c1[nH]c2cccc(OCC(O)CNC3CCCc4cc(O)ccc4C3)c2[nH]1 (stereo not drawn),melting point,,100.5 °C (dec.)
"O=c1[nH]c2cccc(OCC(O)CN(Cc3ccccc3)C3CCCc4cc(O)ccc4C3)c2[nH]1 (stereo not drawn) [Example 11, 1-[N-benzyl-N-(6,7,8,9-tetrahydro-2-hydroxy-5H-benzocyclohepten-6-yl)amino]-3-(1,3-dihydro-2-benzoimidazolon-4-yloxy)-2-propanol]",melting point,,111 to 133 °C (dec.)
"COc1ccc(C(Cc2ccccc2)NC[C@H](O)c2ccc(O)c(NS(C)(=O)=O)c2)cc1OC (stereo partly drawn) [Test Compound (1), N-[5-[2-[l-(3,4-Dimethoxyphenyl)-2-phenylethylamino]-1(R)-hydroxyethyl]-2-hydroxyphenyl]methanesulfonamide]",Increase in intravesical pressure (mmHg),"[1]; Control 5.0 ± 0.9, N = 3, P<0.01 vs Control",1.8 ± 0.3 mmHg
same,effect on the increase in intravesical pressure induced by carbachol (in words),[1],inhibited the increase in intravesical pressure induced by carbachol
"O=c1n(CCCC2CCCC2)nnn1-c1ccc(S(=O)(=O)Nc2ccc(CCNC[C@H](O)c3cccnc3)cc2)cc1 [Test Compound (2), N-[4-[2-[2(R)-Hydroxy-2-(pyridin-3-yl)ethylamino]ethyl]-phenyl]-4-[4-(3-cyclopentylpropyl)-5-tetrazolon-1-yl]-benzenesulfonamide]",Increase in intravesical pressure (mmHg),"[1]; Control 5.0 ± 1.2, N = 4, P<0.05 vs Control",2.3 ± 1.5 mmHg
same,effect on the increase in intravesical pressure induced by carbachol (in words),[1],inhibited the increase in intravesical pressure induced by carbachol
"CS(=O)(=O)Nc1cc(C(O)CNCCOc2ccc3c(c2)[nH]c2ccccc23)ccc1O.Cl (stereo not drawn) [Test Compound (3), N-[5-[2-[2-(9H-Carbazol-2-yloxy)ethylamino]-1-hydroxyethyl]-2-hydroxyphenyl]methanesulfonamide hydrochloride]",Increase in intravesical pressure (mmHg),"[1]; Control 5.0 ± 0.5, N = 3, P<0.01 vs Control",1.7 ± 0.6 mmHg
same,effect on the increase in intravesical pressure induced by carbachol (in words),[1],inhibited the increase in intravesical pressure induced by carbachol
"CCOC(=O)COc1ccc2c(c1)C[C@@H](NC[C@H](O)c1cccc(Cl)c1)CC2.Cl [compound (4), 2(S)-[ (7-Ethoxycarbonylmethoxy-1,2,3,4-tetrahydro-naphthalen-2-yl)amino]-1(R)-(3-chlorophenyl)ethanol hydrochloride]",bladder capacity (relative % of before value),"[2]; time 0-15 minutes, vehicle 128",152%
same,bladder capacity (relative % of before value),"[2]; time 15-30 minutes, vehicle 111",146%
same,bladder capacity (relative % of before value),"[2]; time 30-45 minutes, vehicle 114",143%
same,bladder capacity (relative % of before value),"[2]; time 45-60 minutes, vehicle 104",151%
same,effect on bladder capacity (in words),[2]; dose of 0.01 mg/kg intravenously,increased in bladder capacity
"COC(=O)COc1ccc(C[C@@H](C)NC[C@H](O)c2cccc(Cl)c2)cc1 [compound (5), Methyl 4-[2(R)-[2-(3-chlorophenyl)-2(R)-hydroxyethyl-amino]propyl]phenoxyacetate]",effect on contractile force of bladder (in words),[3],decreased in contractile force of bladder
"N-butyl-2-[8-[[(2S)-2-hydroxy-3-[4-hydroxy-3-methanesulfonylamino]phenoxypropyl]amino]-6,7,8,9-tetrahydro-5H-benzocyclohepten-2-yloxy]acetamide hydrochloride [Example 155]",ED50 (effect on the intravesical pressure),"[1]; similar manner to Test 1, anesthetized dog",0.0108 mg/kg
